Source: patent publication US20100261700A1, “BETA-LACTAMASE INHIBITORS” (priority 2009, published 2010)

Assays:
[1] = molecular target: T1, beta-lactamase from Enterobacter cloacae (Enterobacter cloacae, UniProt P05364); test: Time dependent inhibition of beta-lactamase, with dialysis to test for return of activity; type: biochemical; settings: 10 mL 0.1 units/mL beta-lactamase with 500 microM inhibitor, dialysed against 1 L 0.1 M sodium phosphate buffer (pH 7.0), one exchange
T1 construct: purchased Sigma-Aldrich

[2] = molecular target: T1, beta-lactamase from Enterobacter cloacae; test: Assay (I) for beta-lactamase activity, Cefesone hydrolysis (product inhibition); type: biochemical; settings: reaction continued for two hours; theoretical maximal absorbance approximately 1.6; said to be consistent with product inhibition
Protocol: A chromogenic cephalosporin, Cefesone, is synthesized and isolated, for example, as described by Sutton et al. International Application WO 2009/049086 and used to monitor p-lactamase activity. A typical assay monitors the hydrolysis of Cefesone via the formation of a species which absorbs at 486 nm (molar absorptivity constant 16,000). Absorption is monitored as a function of time in 0.1 M, pH 7.0 sodium phosphate, 0.2 mM Cefesone and 4 volume percent DMSO cosolvent at 30° C. using a Beckman DU-40 spectrophotometer having a circulating water bath attached to the cuvette holder. The assay is initiated by addition and mixing of an appropriate amount of beta-lactamase.
The beta-lactamase assay using enzyme fro Enterobacter cloacae (Sigma-Aldrich, St. Louis, Mo.) was carried out as in Example 2 (assay I) above with compound 2. After the initial rate was determined the reaction was allowed to continue for two hours. Theoretical maximal absorbance at 486 nm is approximately 1.6 while the observed final absorbance was consistently 0.26.

T1 sequence (P05364 21-381): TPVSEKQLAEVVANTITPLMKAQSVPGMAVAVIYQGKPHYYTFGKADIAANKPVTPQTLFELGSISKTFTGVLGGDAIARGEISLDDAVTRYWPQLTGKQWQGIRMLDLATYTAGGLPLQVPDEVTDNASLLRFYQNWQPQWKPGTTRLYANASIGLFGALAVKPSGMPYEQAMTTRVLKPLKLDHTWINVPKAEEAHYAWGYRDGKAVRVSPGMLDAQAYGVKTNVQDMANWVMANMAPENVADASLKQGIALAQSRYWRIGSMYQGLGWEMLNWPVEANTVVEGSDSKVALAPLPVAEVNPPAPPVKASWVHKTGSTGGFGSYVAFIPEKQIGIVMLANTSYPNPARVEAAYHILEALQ

| SMILES | return of beta-lactamase activity after dialysis [1] | observed final absorbance at 486 nm [2] |
| --- | --- | --- |
| O=C(Cc1ccccc1)NC1C(=O)N2C(C(=O)O)=C(/C=C/c3ccc(CBr)cc3)CSC12 (stereo not drawn) [compound 4, 3-(1-bromomethyl-4-vinylbenzene)-7-(2-phenylacetamido)-3-Cephem-4-carboxylic acid] | no return of activity | – |
| O=C(Cc1ccccc1)NC1C(=O)N2C(C(=O)O)=C(/C=C/C3CC3)CSC12 (stereo not drawn) [compound 2, 3-vinylcyclopropane-7-(2-phenylacetamido)-3-Cephem-4-carboxylic acid] | no return of activity | 0.26 |
